# Legend:
# Format in all cases: in vivo
# [1] = test system: Soybean variety "Cordoba"; test: Plant growth test, greenhouse, seed treatment, soybean variety Cordoba; details: for Green surface, % of untreated: 15 days; for Green surface: 15 days at 20° C., 80% relative humidity
# Description: (§1) The test is performed in the greenhouse. 7 soybean seeds per treatment of 2 varieties (Cordoba and Isidor) were sown in 5 liter pots containing 13 cm of a mix of steamed field soil and sand (1:1), 2 replicates were made. The tested compound as well as the reference active ingredient were both solved in a standard solvent used for soybean seed application and known to be safe. Seed treatment was performed with the aid of laboratory equipment. For untreated, 4 replicates were made and seeds were treated with the pure solvent. 2 fungicide concentrations were tested: 5 g a.i./100 kg and 10 g a.i./100 kg. Seeds were then covered by 5 cm of the same mix of steamed field soil and sand (1:1). Pots were incubated in the greenhouse 15 days at 20° C. and 80% relative humidity. Assessment consisted of calculation of green surface of soybean (pixel) using a digital imaging software to manage data analysis.
# [2] = test system: Soybean variety "Isidor"; test: Plant growth test, greenhouse, seed treatment, soybean variety Isidor; details: for Green surface, % of untreated: 15 days; for Green surface: 15 days at 20° C., 80% relative humidity
# Description: as §1
# [3] = test system: soybean seeds; test: Emergence of soybean plants after seed treatment; details: soybean seeds treated
Structure (SMILES),"Green surface, % of untreated ([1]; seed treatment 5 g a.i./100kg)",Green surface ([1]; seed treatment 5 g a.i./100kg) [pixel],"Green surface, % of untreated ([1]; seed treatment 10 g a.i./100kg)",Green surface ([1]; seed treatment 10 g a.i./100kg) [pixel],"Green surface, % of untreated ([2]; seed treatment 5 g a.i./100kg)",Green surface ([2]; seed treatment 5 g a.i./100kg) [pixel],"Green surface, % of untreated ([2]; seed treatment 10 g a.i./100kg)",Green surface ([2]; seed treatment 10 g a.i./100kg) [pixel],Emergence of the soybean plants in comparison to untreated plants [3]
"Cc1nn(C)c(F)c1C(=O)Nc1ccccc1C(C)CC(C)C (centres unmarked) [Penflufen, N-{2-(1,3-dimethylbutyl)anilino}-1,3-dimethyl-5-fluor-4-pyrazol]",160 % of untreated,109373,158 % of untreated,108284,125 % of untreated,105395,133 % of untreated,111543,earlier emergence
"O=C(Nc1ccccc1-c1ccc(Cl)cc1)c1cccnc1Cl [Boscalid, reference compound]",109 % of untreated,74661,113 % of untreated,77243,86 % of untreated,71972,86 % of untreated,72634,

# — patent US20110009267A1, “Process for Improving Seedling Growth and/or Early Emergence of Crops” (Bayer CropScience AG, priority 2009, published 2011)
